System: Dkk1-LRP5-TCF-Luciferase
Assay: Functional Dkk1-LRP5-TCF-Luciferase Assay in U2OS Cells
Conditions: for fold induction at 2 µM / EC50 / fold induction at 20 µM: Homo sapiens, U2OS; for fold induction at 2 µM: read-out: B = TCF ACTIVITY/DMSO CONTROL Fold induction @ 2.0 uM, 2.0 uM compound; for fold induction at 20 µM: read-out: C = TCF ACTIVITY/DMSO CONTROL Fold induction @ 20.0 uM, 20.0 uM compound; for A = MAX FOLD Induction/DMSO CONTROL: maximum fold induction over DMSO control
Experimental: Biological Evaluation—Functional Dkk1-LRP5-TCF-Luciferase Assay in U2OS Cells
Frozen U2OS-Dkk1-HTS Reporter cells generation: U2OS Human Bone derived cells (Osteosarcoma) are grown in McCoy's 5A Medium (Modified), with L -glutamine (GIBCO Cat No. 16600-082)+1% Pen-Strep+5% FBS) plated at 1×10^7 cells/T175 cm flask. The next day, the cells are co-transfected overnight with the following plasmids: (a) Test reporter (16×TCF-TK-FireFly-Luci), (b) Internal Control Reporter (TK-Renilla-Luci), (c) Wnt3a and (d) Dkk1. GIBCO's Lipofectamine 2000 and OptiMEM are used for the transfection. After a minimum of 4 hr of transfection at 37° C., the plasmid-transfected cells are trypsinized, counted, and suspended in freezing medium (95% FBS+5% DMSO). The reporter cells are frozen at 1×10^7/ml concentrations, aliquoted into 0.5 ml or 2.5 ml/tube and stored at 70° C.
The following day, test compounds are added under HTS setup by Plate Track into 384 well plates (white, TC treated, Falcon plate) such that the final concentration of the compounds in 20 μL/well cell will be 5 μg/ml (final concentration of DMSO=0.25% and final compound concentration=20 μM). Vials of frozen reporter cells are thawed by warming the vial in a 37° C. water bath for 60-120 seconds with some shaking until the cells formed a suspension. The thawed cells are transferred into a cold 50 ml (or larger) tube and mixed well by gentle pipetting. The appropriate amount of cold Phenol Red Free RPMI medium-1640 (GIBCO, Cat #11835-030) with L-glutamine is added, both with ˜5% FBS (GIBCO-BRL, Cat. #16000-044), so that 20 μl of the final cell suspension will contain ˜5,000 cells. The cell dilution is done such that the final concentration of FBS is ˜5%.
Diluted cells (20 μl) are added into each well in a 384 well plate. The plate is incubated at 37° C. under 5% CO2 for ˜20 h. Bright-Glo substrate, 2.5 μl/well is added, and the Fire Fly Luciferase is measured using VLUX (60 second exposure) immediately after the substrate is added. Test compounds are dissolved in DMSO (100%) and added to specified wells. Raw luciferase signal data obtained as relative luminescence units (RLUs) for the test compounds are normalized to the signal of the mean of the sample reporter cell plate with DMSO.

| EC50 | A = MAX FOLD Induction/DMSO CONTROL | SMILES | fold induction at 2 µM | fold induction at 20 µM |
| --- | --- | --- | --- | --- |
|  |  | O=C([C@@H]1CCCN1c1nccc(-c2ccc3ccccc3c2)n1)N1CCCCC1 [4-(2-naphthyl)-2-[(2S)-2-(piperidin-1-ylcarbonyl)pyrrolidin-1-yl]pyrimidine] | 1.91 |  |
|  |  | O=C(c1ccccc1)N1CC[C@@H](Nc2nccc(-c3ccc4ccccc4c3)n2)C1 [N-[(3R)-1-benzoylpyrrolidin-3-yl]-4-(2-naphthyl)pyrimidin-2-amine] | 1.84 |  |
| 2150 nM | 2.533 fold | CC(=O)N(C)[C@H]1CCN(c2nccc(-c3ccc4ccccc4c3)n2)C1 [N-methyl-N-{(3S)-1-[4-(2-naphthyl)pyrimidin-2-yl]pyrrolidin-3-yl}acetamide] | 2.38 | 2.89 |
|  |  | O=C(NC1CCCN(c2nccc(-c3ccc4ccccc4c3)n2)CC1)C(F)(F)F (centres unmarked) [2,2,2-trifluoro-N-{1-[4-(2-naphthyl)pyrimidin-2-yl]azepan-4-yl}acetamide] | 1.1 | 1.87 |
|  |  | O=CN1CCCN(Cc2nccc(-c3ccc4ccccc4c3)n2)CC1 [4-{[4-(2-naphthyl)pyrimidin-2-yl]methyl}-1,4-diazepane-1-carbaldehyde] | 1.15 | 1.13 |
| 870 nM | 2.280 fold | C[C@@H](N)C1CCN(c2nccc(-c3ccc4ccccc4c3)n2)CC1 [(1R)-1-{1-[4-(2-naphthyl)pyrimidin-2-yl]piperidin-4-yl}ethanamine] |  |  |
|  |  | CN(c1nccc(-c2ccc3ccccc3c2)n1)C1CCN(C=O)CC1 [4-{methyl[4-(2-naphthyl)pyrimidin-2-yl]amino}piperidine-1-carbaldehyde] | 1.73 | 1.29 |
|  | 2.510 fold | c1ccc2cc(-c3ccnc(N4CC[C@@H](N5CCNCC5)C4)n3)ccc2c1 [4-(2-naphthyl)-2-[(3R)-3-piperazin-1-ylpyrrolidin-1-yl]pyrimidine] | 3.44 |  |
|  |  | NCC1CCN(Cc2nccc(-c3ccc4ccccc4c3)n2)CC1 [1-(1-{[4-(2-naphthyl)pyrimidin-2-yl]methyl}piperidin-4-yl)methanamine] | 1.41 | 1.77 |
|  |  | NC(=O)N1CC(CNc2nccc(-c3ccc4ccccc4c3)n2)C1 [3-({[4-(2-naphthyl)pyrimidin-2-yl]amino}methyl)azetidine-1-carboxamide] | 1.09 | 1.58 |
|  |  | O=C1CN(CC2CCN(c3nccc(-c4ccc5ccccc5c4)n3)CC2)CCN1 [4-({1-[4-(2-naphthyl)pyrimidin-2-yl]piperidin-4-yl}methyl)piperazin-2-one] | 1.16 | 1.49 |
|  |  | O=C(NCCC1CCN(c2nccc(-c3ccc4ccccc4c3)n2)CC1)c1ccccc1 [N-(2-{1-[4-(2-naphthyl)pyrimidin-2-yl]piperidin-4-yl}ethyl)benzamide] | 0.91 | 1.95 |
|  |  | O=c1[nH]c2ccccc2n1C1CCN(c2nccc(-c3ccc4ccccc4c3)n2)CC1 [1-{1-[4-(2-naphthyl)pyrimidin-2-yl]piperidin-4-yl}-1,3-dihydro-2H-benzimidazol-2-one] | 1.03 | 0.01 |
|  |  | c1ccc2cc(-c3ccnc(N4CC[C@@H](N5CC6CCNC6C5)C4)n3)ccc2c1 (stereo partly drawn) [5-{(3R)-1-[4-(2-naphthyl)pyrimidin-2-yl]pyrrolidin-3-yl}octahydropyrrolo[3,4-b]pyrrole] | 2.2 |  |
|  |  | CN(C)c1cccc2c(S(=O)(=O)N[C@H]3CC[C@H](Nc4nccc(-c5ccc6ccccc6c5)n4)CC3)cccc12 [5-(dimethylamino)-N-(trans-4-{[4-(2-naphthyl)pyrimidin-2-yl]amino}cyclohexyl)naphthalene-1-sulfonamide] | 1.43 | 1.34 |
|  |  | CC(=O)N1CC(CNc2nccc(-c3ccc4ccccc4c3)n2)C1 [N-[(1-acetylazetidin-3-yl)methyl]-4-(2-naphthyl)pyrimidin-2-amine] | 1.8 |  |
|  |  | CC(C)(C)OC(=O)N1CCN(C[C@H]2CCN(c3nccc(-c4ccc5ccccc5c4)n3)C2)CC1 [tert-butyl 4-({(3R)-1-[4-(2-naphthyl)pyrimidin-2-yl]pyrrolidin-3-yl}methyl)piperazine-1-carboxylate] | 1.95 |  |
|  |  | CN(C)C(=O)N[C@H]1CCN(c2nccc(-c3ccc4ccccc4c3)n2)C1 [N,N-dimethyl-N′-{(3S)-1-[4-(2-naphthyl)pyrimidin-2-yl]pyrrolidin-3-yl}urea] | 0.94 | 1.65 |
|  |  | N=C(N)N1CCN(c2nccc(-c3ccc4ccccc4c3)n2)CC1 [4-[4-(2-naphthyl)pyrimidin-2-yl]piperazine-1-carboximidamide] | 1.1 | 0.05 |
|  |  | CC(C)(C)OC(=O)N[C@H]1CCN(c2nccc(-c3ccc4ccccc4c3)n2)C1 [tert-butyl {(3S)-1-[4-(2-naphthyl)pyrimidin-2-yl]pyrrolidin-3-yl}carbamate] | 1.51 |  |

| EC50 | A = MAX FOLD Induction/DMSO CONTROL | SMILES | fold induction at 2 µM | fold induction at 20 µM |
| --- | --- | --- | --- | --- |
|  |  | c1ccc2cc(-c3ccnc(N4CCC4)n3)ccc2c1 [2-azetidin-1-yl-4-(2-naphthyl)pyrimidine] | 1.37 | 1.58 |
| 1070 nM | 4.637 fold | CN(C)[C@@H]1CCN([C@H]2CCN(c3nccc(-c4ccc5ccccc5c4)n3)C2)C1 [(3R,3′S)-N,N-dimethyl-1′-[4-(2-naphthyl)pyrimidin-2-yl]-1,3′-bipyrrolidin-3-amine] | 4.17 |  |
|  |  | CC(C)(C)OC(=O)N[C@@H]1CCN(c2nccc(-c3ccc4ccccc4c3)n2)C1 [tert-butyl {(3R)-1-[4-(2-naphthyl)pyrimidin-2-yl]pyrrolidin-3-yl}carbamate] | 1.95 |  |
|  |  | OC[C@@H]1CCCN1c1nccc(-c2ccc3ccccc3c2)n1 [{(2S)-1-[4-(2-naphthyl)pyrimidin-2-yl]pyrrolidin-2-yl}methanol] | 2.05 | 2.02 |
|  |  | NC[C@H]1C[C@H]2C[C@@H]1CN2c1nccc(-c2ccc3ccccc3c2)n1 [1-{(1S,4S,5S)-2-[4-(2-naphthyl)pyrimidin-2-yl]-2-azabicyclo[2.2.1]hept-5-yl}methanamine] | 1.2 |  |
|  |  | O=C(NCC1CCN(c2nccc(-c3ccc4ccccc4c3)n2)C1)c1ccccc1 (centres unmarked) [N-({1-[4-(2-naphthyl)pyrimidin-2-yl]pyrrolidin-3-yl}methyl)benzamide] | 1.06 | 1.03 |
|  | 1.840 fold | OCCC1CCN(c2nccc(-c3ccc4ccccc4c3)n2)CC1 [2-{1-[4-(2-naphthyl)pyrimidin-2-yl]piperidin-4-yl}ethanol] | 1.54 | 1.64 |
|  | 2.430 fold | c1ccc2cc(-c3ccnc(N4CC[C@@H](Cn5ccnc5)C4)n3)ccc2c1 [2-[(3S)-3-(1H-imidazol-1-ylmethyl)pyrrolidin-1-yl]-4-(2-naphthyl)pyrimidine] | 1.27 | 4.29 |
|  |  | CC(C)(C)OC(=O)N[C@H](CO)C1CCN(c2nccc(-c3ccc4ccccc4c3)n2)CC1 [tert-butyl ((1S)-2-hydroxy-1-{1-[4-(2-naphthyl)pyrimidin-2-yl]piperidin-4-yl}ethyl)carbamate] | 1.22 | 0.44 |
|  |  | O[C@@H]1CCCN([C@H]2CCN(c3nccc(-c4ccc5ccccc5c4)n3)C2)C1 [(3R)-1-{(3S)-1-[4-(2-naphthyl)pyrimidin-2-yl]pyrrolidin-3-yl}piperidin-3-ol] |  | 2.9 |
|  | 1.650 fold | CC(=O)N1CCC(N(C)c2nccc(-c3ccc4ccccc4c3)n2)CC1 [N-(1-acetylpiperidin-4-yl)-N-methyl-4-(2-naphthyl)pyrimidin-2-amine] | 1.37 | 0.37 |
|  |  | OCC1CCCN([C@@H]2CCN(c3nccc(-c4ccc5ccccc5c4)n3)C2)C1 (stereo partly drawn) [(1-{(3R)-1-[4-(2-naphthyl)pyrimidin-2-yl]pyrrolidin-3-yl}piperidin-3-yl)methanol] | 1.49 |  |
|  |  | CC1(O)CCN(c2nccc(-c3ccc4ccccc4c3)n2)CC1 [4-methyl-1-[4-(2-naphthyl)pyrimidin-2-yl]piperidin-4-ol] |  | 1.09 |
|  |  | c1ccc2cc(-c3ccnc(N4C[C@H]5CNC[C@H]5C4)n3)ccc2c1 [(3aR*,6aS*)-2-[4-(2-naphthyl)pyrimidin-2-yl]octahydropyrrolo[3,4-c]pyrrole] | 1.73 | 0.01 |
|  |  | O=C(N[C@H]1CCN(c2nccc(-c3ccc4ccccc4c3)n2)C1)c1ccc(Cl)cc1 [4-chloro-N-{(3S)-1-[4-(2-naphthyl)pyrimidin-2-yl]pyrrolidin-3-yl}benzamide] | 1.78 |  |
|  |  | c1ccc2cc(-c3ccnc(N4CC[C@H](NCCN5CCOCC5)C4)n3)ccc2c1 [(3S)—N-(2-morpholin-4-ylethyl)-1-[4-(2-naphthyl)pyrimidin-2-yl]pyrrolidin-3-amine] | 1.39 | 0.91 |
| 1200 nM | 2.900 fold | NCC1CCN(c2ncc(-c3ccc4ccccc4c3)cn2)CC1 [1-{1-[5-(2-naphthyl)pyrimidin-2-yl]piperidin-4-yl}methanamine] | 3.1 |  |
| 1370 nM | 3.106 fold | CC(C)(C)NCC1CCN(c2nccc(-c3ccc4ccccc4c3)n2)C1 (centres unmarked) [2-methyl-N-({1-[4-(2-naphthyl)pyrimidin-2-yl]pyrrolidin-3-yl}methyl)propan-2-amine] | 1.99 | 0.018 |
|  |  | CNC(=O)[C@H]1CCCN1c1nccc(-c2ccc3ccccc3c2)n1 [N-methyl-1-[4-(2-naphthyl)pyrimidin-2-yl]-D-prolinamide] | 1.13 | 1.32 |
| 865 nM | 1.940 fold | C[C@H](N)C1CCN(c2nccc(-c3ccc4ccccc4c3)n2)CC1 [(1S)-1-{1-[4-(2-naphthyl)pyrimidin-2-yl]piperidin-4-yl}ethanamine] |  |  |

Source: patent publication US20090054392A1, “NAPHTHYLPYRIMIDINE, NAPHTHYLPYRAZINE AND NAPHTHYLPYRIDAZINE ANALOGS AND THEIR USE AS AGONISTS OF THE WNT-BETA-CATENIN CELLULAR MESSAGING SYSTEM” (Wyeth, priority 2007, published 2009)
